Values after ≈ are worked out from the molar mass of the structure shown.
Key:
[1] = Inhibition of HIV1 BH10 reverse transcriptase using poly(rA)/oligo(dT)15 as substrate after 60 mins by fluorescence assay; design: species or system Human immunodeficiency virus type 1 BH10
[2] = Antiviral activity against wild type HIV1 BH10 infected in human C8166 cells after 3 days by luciferase reporter gene assay; format: functional, cell-based, Human immunodeficiency virus type 1 BH10; conditions: Human immunodeficiency virus 1, C8166, 72 h
[3] = Cytotoxicity against human C8166 cells assessed as inhibition of cell viability after 3 days by MTT assay; format: cell-based
[4] = Cytotoxicity against human C8166 cells assessed as inhibition of cell viability at CC50 after 3 days by MTT assay; format: cell-based; conditions: read-out: INH
[5] = test system: Human immunodeficiency virus type 1 BH10; assay: Selectivity ratio of EC50 for HIV1 BH10 harboring reverse transcriptase K103N/Y181C double mutant to EC50 for wild type HIV1 BH10; format: functional
[6] = Solubility of the compound in phosphate buffer at pH 6.8 after 24 hrs by LC-MS analysis; format: physicochemical
[7] = Apparent permeability across human Caco2 cells at 10 uM by LC-MS/MS analysis; format: ADME, cell-based; conditions: Caco-2
[8] = n-Octanol-phosphate buffer partition coefficient, log D of the compound at 0.5 mg after 24 hrs by LC-MS analysis; format: physicochemical
[9] = Ratio of EC50 for wild type HIV1 BH10 infected in human C8166 cells in presence of serum to EC50 for wild type HIV1 BH10 infected in human C8166 cells in absence of serum; format: functional, Human immunodeficiency virus type 1 BH10
[10] = Half life in human liver microsomes at 1 uM by LC-MS/MS analysis; format: ADME, Microsome
[11] = Solubility of the compound in phosphate buffer at pH 2 after 24 hrs by LC-MS analysis; format: physicochemical
[12] = test system: Human immunodeficiency virus type 1 BH10; assay: Selectivity ratio of EC50 for HIV1 BH10 harboring reverse transcriptase Y115F/M184V double mutant to EC50 for wild type HIV1 BH10; format: functional
[13] = Half life in Sprague-Dawley rat liver microsomes at 1 uM by LC-MS/MS analysis; format: ADME, Microsome
[14] = test system: Human immunodeficiency virus type 1 BH10; assay: Selectivity ratio of EC50 for HIV1 BH10 harboring reverse transcriptase K65R mutant to EC50 for wild type HIV1 BH10; format: functional
[15] = Ratio of CC50 for human C8166 cells to EC50 for wild type HIV1 BH10 infected in human C8166 cells
[16] = test system: Human immunodeficiency virus type 1 BH10; assay: Selectivity ratio of EC50 for HIV1 BH10 harboring reverse transcriptase M184V mutant to EC50 for wild type HIV1 BH10; format: functional
[17] = test system: Human immunodeficiency virus type 1 BH10; assay: Selectivity ratio of EC50 for HIV1 BH10 harboring reverse transcriptase Y115F mutant to EC50 for wild type HIV1 BH10; format: functional

Molecule `Cn1c(=O)nc(-c2ccccc2)c2oc3ccccc3c21` has an IC50 [1] greater than 83000 nM.
With `COCCn1c(=O)nc(-c2ccc(OCCN(C)C)cc2)c2oc3ccccc3c21` the EC50 [2] was 14000 nM and the IC50 [1] was 630 nM.
Molecule `CCNCC(=O)Nc1ccc(-c2nc(=O)n(CCOC)c3c2oc2ccccc23)cc1` has an EC50 [2] of 680 nM, a CC50 at 72 h [3] of 5100 nM and an IC50 [1] of 73 nM.
`O=c1nc(-c2ccccc2)c2oc3ccc(Cl)cc3c2n1CCN1CCOCC1` gave an IC50 [1] of 6500 nM.
`COCCn1c(=O)nc(-c2ccc(N3CCN(C)CC3)nc2)c2oc3ccc(Cl)cc3c21` gave an EC50 [2] of 890 nM, a cytotoxicity at 72 h [4] of 37% and a CC50 at 72 h [3] greater than 5800 nM. The IC50 [1] was 75 nM.
Work on `CN(C)CC(=O)Nc1ccc(-c2nc(=O)n(C)c3c2oc2ccccc23)cc1` yielded an EC50 [2] of 1600 nM, a CC50 at 72 h [3] of 7700 nM and an IC50 [1] of 3100 nM.
`O=c1nc(-c2ccccc2)c2oc3ccc(Cl)cc3c2n1CCN1CCCC1` gave an EC50 [2] of 3700 nM, a cytotoxicity at 72 h [4] of 6% and a CC50 at 72 h [3] greater than 7300 nM. The IC50 [1] was 590 nM.
With `CCNCC(=O)Nc1ccc(-c2nc(=O)n(CCOC)c3c2oc2cc(-c4ccc5c(c4)CCN(C)C5)ccc23)cc1` the EC50 [2] was 88 nM, the CC50 at 72 h [3] was 2100 nM and the IC50 [1] was 8.6 nM.
`O=c1nc(-c2ccccc2)c2oc3ccc(Cl)cc3c2n1CCN1CCC(F)(F)C1` gave an EC50 [2] of 2900 nM, a CC50 at 72 h [3] greater than 4500 nM and an IC50 [1] of 320 nM.
With `COCCn1c(=O)nc(-c2ccnc(N3CCN(C)CC3)c2)c2oc3ccc(Br)cc3c21` the IC50 [1] was greater than 5000 nM.
For `NC(=O)C1CCCN1CCn1c(=O)nc(-c2ccccc2)c2oc3ccc(Cl)cc3c21` (centres undefined), the EC50 [2] was 2600 nM, the CC50 at 72 h [3] was greater than 6700 nM and the IC50 [1] was 650 nM.
With `CCNCC(=O)Nc1ccc(-c2nc(=O)n(CCOC)c3c2oc2ccc(-c4ccc(CN(C)C)cc4)cc23)cc1` the EC50 [2] was 94 nM, the CC50 at 72 h [3] was 3900 nM and the IC50 [1] was 12 nM.
With `COCCn1c(=O)nc(-c2cnc(N3CCN(C)CC3)nc2)c2oc3ccccc3c21` the EC50 [2] was 690 nM, the cytotoxicity at 72 h [4] was 40% and the CC50 at 72 h [3] was greater than 9500 nM. The IC50 [1] was 155 nM.
`COCCn1c(=O)nc(-c2ccc(COCCN(C)C)cc2)c2oc3ccccc3c21` gave an EC50 [2] greater than 11000 nM and an IC50 [1] of 818 nM.
For `COCCn1c(=O)nc(-c2ccc(NC(=O)C(C)N(C)C)cc2)c2oc3ccccc3c21` (centres undefined), the EC50 [2] was 4400 nM, the cytotoxicity at 72 h [4] was 14% and the CC50 at 72 h [3] was greater than 11000 nM. It also gave an IC50 [1] of 1400 nM.
In the case of `CNC1CCN(c2ccc(-c3nc(=O)n(CCOC)c4c3oc3ccc(Cl)cc34)cn2)C1` (centres undefined), the EC50 [2] is reported as 210 nM, the CC50 at 72 h [3] is reported as 4300 nM and the IC50 [1] is reported as 40 nM.
For `CN1CCc2cc(-c3ccc4oc5c(-c6ccccc6)nc(=O)n(CCN6CCCC6C(N)=O)c5c4c3)ccc2C1` (centres undefined), the Ratio EC50 [5] was 1.7, the solubility at 24 h [6] was 725 µg/mL (≈ 1320 µM) and the EC50 [2] was 52 nM. The Papp at 10 µM [7] was 0.17 ×10⁻⁶ cm/s, the logD at 24 h [8] was 3 and the “Ratio EC50” value [9] was 8.4. For the same molecule, the half-life at 1 µM [10] was 1.22 h, the solubility at 24 h [11] was 781 µg/mL (≈ 1430 µM) and the Ratio EC50 [12] was 14.2. For the same molecule, the half-life at 1 µM [13] was 1 h, the Ratio EC50 [14] was 0.3 and the “Ratio CC50/EC50” value [15] was greater than 127. The Ratio EC50 [16] was 5.8 and the IC50 [1] was 5.9 nM.
Work on `CCNCC(=O)Nc1ccc(-c2nc(=O)n(CCOC)c3c2oc2cc(-c4ccc(CN(C)C)cc4)ccc23)cc1` yielded an EC50 [2] of 53 nM, a CC50 at 72 h [3] of 1000 nM and an IC50 [1] of 7.4 nM.
`CNCCNc1ccc(-c2nc(=O)n(CCOC)c3c2oc2ccc(Cl)cc23)cc1` gave an EC50 [2] of 87 nM, a CC50 at 72 h [3] of 960 nM and an IC50 [1] of 10 nM.
For `COCCn1c(=O)nc(-c2ccc(NCCN3CCCC3)cc2)c2oc3ccccc3c21`, the EC50 [2] was 2400 nM, the CC50 at 72 h [3] was greater than 7400 nM and the IC50 [1] was 120 nM.
Work on `COCCn1c(=O)nc(-c2ccc(C(=O)NCCN(C)C)cc2)c2oc3ccccc3c21` yielded an EC50 [2] greater than 9300 nM and an IC50 [1] of 945 nM.
Work on `COCCn1c(=O)nc(-c2ccc(N3CCNCC3)cc2)c2oc3ccc(Cl)cc3c21` yielded an EC50 [2] of 175 nM, a CC50 at 72 h [3] of 2700 nM and an IC50 [1] of 10 nM.
`COCCn1c(=O)nc(-c2ccc(NC(=O)CN3CCCC3)cc2)c2oc3ccccc3c21` gave an EC50 [2] of 1100 nM, a CC50 at 72 h [3] of 5950 nM and an IC50 [1] of 390 nM.
For `COCCn1c(=O)nc(-c2ccc(N3CCN(C)CC3)cc2)c2oc3ccc(Cl)cc3c21`, the EC50 [2] was 430 nM, the cytotoxicity at 72 h [4] was 18% and the CC50 at 72 h [3] was greater than 4500 nM. For the same molecule, the IC50 [1] was 24 nM.
`CCNCC(=O)Nc1ccc(-c2nc(=O)n(CCOC)c3c2oc2ccc(-c4ccc(CO)cc4)cc23)cc1` gave an EC50 [2] of 300 nM, a CC50 at 72 h [3] greater than 1300 nM and an IC50 [1] of 34 nM.
`O=c1nc(-c2ccccc2)c2oc3ccccc3c2n1CCN1CCOCC1` gave an IC50 [1] greater than 26000 nM.
For `COCCn1c(=O)nc(-c2ccc(NC(=O)CN(C)C)cc2)c2oc3ccccc3c21`, the EC50 [2] was 3600 nM, the cytotoxicity at 72 h [4] was 15% and the CC50 at 72 h [3] was greater than 11000 nM. It also gave an IC50 [1] of 1200 nM.
`CCNCC(=O)Nc1ccc(-c2nc(=O)n(CCOC)c3c2oc2ccc(Cl)cc23)cc1` gave an EC50 [2] of 550 nM, a CC50 at 72 h [3] of 3000 nM and an IC50 [1] of 46 nM.
`CCNCc1nc2cc(-c3nc(=O)n(CCOC)c4c3oc3ccc(Br)cc34)ccc2n1C` gave an EC50 [2] of 540 nM, a cytotoxicity at 72 h [4] of 20% and a CC50 at 72 h [3] greater than 4400 nM. The IC50 [1] was 42 nM.
Work on `O=c1nc(-c2ccccc2)c2oc3ccccc3c2n1CCN1CCCC1` yielded an EC50 [2] of 11000 nM, a CC50 at 72 h [3] of 18000 nM and an IC50 [1] of 4200 nM.
For `CCNCC(=O)Nc1ccc(-c2nc(=O)n(CCOC)c3c2oc2ccc(-c4ccccc4)cc23)cc1`, the EC50 [2] was 360 nM, the CC50 at 72 h [3] was 2300 nM and the IC50 [1] was 33 nM.
`CN1CCc2cc(-c3ccc4oc5c(-c6ccccc6)nc(=O)n(CCN6CCC(F)(F)C6)c5c4c3)ccc2C1` showed a Ratio EC50 [5] of 1.7, a solubility at 24 h [6] of less than 0.1 µg/mL and an EC50 [2] of 25 nM. The Papp at 10 µM [7] was 0.55 ×10⁻⁶ cm/s, the logD at 24 h [8] was 3.9 and the “Ratio EC50” value [9] was 7.3. For the same molecule, the half-life at 1 µM [10] was 0.317 h, the solubility at 24 h [11] was greater than 1000 µg/mL and the Ratio EC50 [12] was 14.8. For the same molecule, the half-life at 1 µM [13] was 0.1 h, the Ratio EC50 [14] was 0.3 and the “Ratio CC50/EC50” value [15] was greater than 46. For the same molecule, the Ratio EC50 [16] was 4.8 and the IC50 [1] was 20 nM.
`CCNCC(=O)Nc1ccc(-c2nc(=O)n(CCOC)c3c2oc2ccc(-c4ccc5c(c4)CCN(C)C5)cc23)cc1` gave a Ratio EC50 [5] of 1.1, a solubility at 24 h [6] of 650 µg/mL (≈ 1150 µM) and an EC50 [2] of 30 nM. For the same molecule, the Papp at 10 µM [7] was less than 0.1 ×10⁻⁶ cm/s, the logD at 24 h [8] was 2.4 and the “Ratio EC50” value [9] was 1.5. It also gave a Ratio EC50 [17] of 2, a half-life at 1 µM [10] of 1.55 h and a solubility at 24 h [11] greater than 822 µg/mL. For the same molecule, the Ratio EC50 [12] was 3.3, the CC50 at 72 h [3] was 4800 nM and the half-life at 1 µM [13] was 2.33 h. For the same molecule, the Ratio EC50 [14] was 0.1, the “Ratio CC50/EC50” value [15] was 137 and the Ratio EC50 [16] was 1.1. The IC50 [1] was 4.2 nM.
Molecule `CCNCC(=O)Nc1ccc(-c2nc(=O)n(CCOC)c3c2oc2ccc(-c4cccnc4)cc23)cc1` has an EC50 [2] of 200 nM, a cytotoxicity at 72 h [4] of 33% and a CC50 at 72 h [3] greater than 5100 nM. It also gave an IC50 [1] of 27 nM.

— ChEMBL document CHEMBL2375293, “Identification of benzofurano[3,2-d]pyrimidin-2-ones, a new series of HIV-1 nucleotide-competing reverse transcriptase inhibitors” (Bioorg Med Chem Lett, 2013)
